From patent US20230312550A1, “N-(2-(4-CYANOTHIAZOLIDIN-3-YL)-2-OXOETHYL)-QUINOLINE-4-CARBOXAMIDES” (AstraZeneca AB, priority 2020, published 2023)
Converted amounts (≈) assume the structure as drawn. Values belong to the molecule of their own block, whether it stands above or below them.

What was measured:
[1] = molecular target: FAP (Homo sapiens (Human), UniProt Q12884); test: hFAP inhibition assay; type: biochemical; conditions: Ala-Pro-AMC 20 μM, n = 1 or geometric mean n = 2-3
Experimental: 384 low volume black plates (Greiner #784076) were used. 4 μL, 0.48 nM enzyme solution (100 mM Tris HCl, 100 mM NaCl, 0.05% Chaps, pH 7.4) was added to 40 nL compounds (in DMSO) at 10 CR, 3 fold dilution series from 50 μM FAC. Plates were incubated for 15 min at rt in dark. 4 μL, 40 μM substrate solution (100 mM Tris HCl, 100 mM NaCl, 0.05% Chaps, pH 7.4) was added to each well. Plates were centrifuged at 1000 rpm and incubated for 30 min at rt in dark. The plates were read on a PHERAstar® reader with excitation 340 nm and emission 460 nm. Data were analyzed in Genedata Screener®. IC50 values were determined by plotting % inhibition versus log compound concentration and using a one site dose response model.

[2] = molecular target: human Fibroblast activation protein alpha (hFAP) (Homo sapiens (Human), UniProt Q12884); test: hFAP inhibition assay (tight binders); type: biochemical; conditions: Ala-Pro-AMC 20 μM, n = 1 or geometric mean n = 2-6; note: hFAP 2.4 pM
human Fibroblast activation protein alpha (hFAP), sequence (Q12884 38-760): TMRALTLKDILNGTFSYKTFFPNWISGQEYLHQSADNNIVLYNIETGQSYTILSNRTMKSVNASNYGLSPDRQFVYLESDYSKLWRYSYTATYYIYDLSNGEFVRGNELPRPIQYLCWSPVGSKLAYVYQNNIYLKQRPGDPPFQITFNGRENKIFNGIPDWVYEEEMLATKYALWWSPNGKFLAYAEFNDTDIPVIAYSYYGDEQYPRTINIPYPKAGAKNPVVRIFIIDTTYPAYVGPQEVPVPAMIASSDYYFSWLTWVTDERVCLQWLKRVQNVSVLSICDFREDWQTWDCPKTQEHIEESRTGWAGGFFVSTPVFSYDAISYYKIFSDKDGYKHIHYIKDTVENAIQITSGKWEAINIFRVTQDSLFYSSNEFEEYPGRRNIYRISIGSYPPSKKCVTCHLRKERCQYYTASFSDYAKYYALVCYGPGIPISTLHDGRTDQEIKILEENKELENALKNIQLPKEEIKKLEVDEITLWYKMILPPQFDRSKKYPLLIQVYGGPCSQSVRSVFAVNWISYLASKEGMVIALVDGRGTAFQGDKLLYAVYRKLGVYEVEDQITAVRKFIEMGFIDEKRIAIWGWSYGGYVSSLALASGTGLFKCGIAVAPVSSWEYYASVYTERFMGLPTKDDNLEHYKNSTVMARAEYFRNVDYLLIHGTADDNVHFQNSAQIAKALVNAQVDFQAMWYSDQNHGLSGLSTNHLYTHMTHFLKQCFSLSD
Experimental: The plates were read on a PHERAstar® reader with excitation 340 nm and emission 460 nm. Data were analyzed in Genedata Screener®. IC50 values were determined by plotting % inhibition versus log compound concentration and using a one site dose response model.

[3] = molecular target: hFAP (M39-A757) (Homo sapiens (Human), UniProt Q12884); test: hFAP binding assay (surface plasmon resonance); conditions: SPR, 20° C.; for hFAP Binding assay k(off) / hFAP Binding assay k(on): single cycle kinetics; for Kd: n = 1 or geometric mean n = 2-4
hFAP (M39-A757), sequence (Q12884 39-757): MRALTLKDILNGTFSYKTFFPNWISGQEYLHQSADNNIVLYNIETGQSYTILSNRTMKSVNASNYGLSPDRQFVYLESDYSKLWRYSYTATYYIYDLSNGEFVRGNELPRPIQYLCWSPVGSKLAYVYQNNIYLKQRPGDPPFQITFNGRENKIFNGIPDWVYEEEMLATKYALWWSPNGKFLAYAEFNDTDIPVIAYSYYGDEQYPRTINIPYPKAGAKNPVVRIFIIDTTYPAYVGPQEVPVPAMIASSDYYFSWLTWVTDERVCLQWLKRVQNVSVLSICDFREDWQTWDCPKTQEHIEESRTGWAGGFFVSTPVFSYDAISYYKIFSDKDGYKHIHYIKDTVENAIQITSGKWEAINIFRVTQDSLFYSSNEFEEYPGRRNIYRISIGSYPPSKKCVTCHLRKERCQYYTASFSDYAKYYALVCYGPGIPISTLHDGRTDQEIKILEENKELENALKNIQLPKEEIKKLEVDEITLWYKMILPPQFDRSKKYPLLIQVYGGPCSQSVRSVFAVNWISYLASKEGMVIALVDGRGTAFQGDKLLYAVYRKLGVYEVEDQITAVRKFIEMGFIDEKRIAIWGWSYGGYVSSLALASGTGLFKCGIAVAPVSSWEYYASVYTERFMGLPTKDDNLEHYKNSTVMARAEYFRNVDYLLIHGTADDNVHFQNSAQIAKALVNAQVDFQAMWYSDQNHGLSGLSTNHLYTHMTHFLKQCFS

[4] = molecular target: Prolyl endopeptidase, Prolyl Oligopeptidase (hPREP) (Homo sapiens (Human), UniProt P48147); test: hPrep inhibition assay; type: biochemical; conditions: hPREP 0.6 nM, Z-Gly-Pro-amino-methylcoumarin 50 μM; read-out: PREP IC50
Prolyl endopeptidase, Prolyl Oligopeptidase (hPREP), sequence (P48147 whole entry): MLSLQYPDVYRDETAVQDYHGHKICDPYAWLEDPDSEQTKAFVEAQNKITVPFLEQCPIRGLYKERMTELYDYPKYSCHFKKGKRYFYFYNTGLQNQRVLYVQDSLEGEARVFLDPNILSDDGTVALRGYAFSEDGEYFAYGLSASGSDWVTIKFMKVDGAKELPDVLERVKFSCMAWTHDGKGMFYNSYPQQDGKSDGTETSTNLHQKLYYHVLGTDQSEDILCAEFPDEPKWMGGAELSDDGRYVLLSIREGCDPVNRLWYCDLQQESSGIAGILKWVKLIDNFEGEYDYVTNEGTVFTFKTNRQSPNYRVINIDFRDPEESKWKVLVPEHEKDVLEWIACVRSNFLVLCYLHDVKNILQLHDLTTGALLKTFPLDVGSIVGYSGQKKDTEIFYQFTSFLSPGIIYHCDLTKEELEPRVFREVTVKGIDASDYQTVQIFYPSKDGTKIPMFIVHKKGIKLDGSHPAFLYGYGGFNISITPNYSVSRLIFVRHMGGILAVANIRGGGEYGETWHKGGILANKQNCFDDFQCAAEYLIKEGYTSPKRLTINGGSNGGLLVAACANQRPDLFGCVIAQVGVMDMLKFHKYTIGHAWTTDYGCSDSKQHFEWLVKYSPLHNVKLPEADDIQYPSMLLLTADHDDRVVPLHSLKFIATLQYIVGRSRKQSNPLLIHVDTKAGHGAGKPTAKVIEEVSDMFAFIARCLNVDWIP
Method in brief: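 Recombinant human PREP at 0.6 nM final with Z-Gly-Pro-AMC substrate at 50 μM final in Tris-HCl pH 7.5, NaCl, Triton X-100, glutathione; 15 min rt preincubation then 20 min rt reaction in dark. AMC fluorescence (ex 340/em 460 nm); IC50 from one-site dose-response fit of % inhibition.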

[5] = Kinetic solubility; conditions: kinetic from dmso stock
Experimental: Kinetic solubility was measured as described in Comput Aided Mol Des 2015, 29, 795.

[6] = Metabolic stability in rat hepatocytes (rHep); conditions: n = 1 or geometric mean of n = 2-3
[7] = Metabolic stability in human liver microsomes (HLM); conditions: human
Experimental: Metabolic stability in HLM was measured as described in J Comput Aided Mol Des 2015, 29, 795.

[8] = Caco-2 cell permeability; conditions: human
Experimental: Caco-2 cell permeability was measured as described in Mol Pharm 2017, 14, 1601.

[9] = Solubility, kinetic solubility, n = 1 or average of n = 2-3
[10] = HLM CLint, n = 1 or average of n = 2-3

FAP, sequence (Q12884 38-760): as the sequence (Q12884 38-760) above

Compound: N#C[C@@H]1CSCN1C(=O)CNC(=O)c1ccnc2ccc(-c3ccnn3[C@H]3CCCCO3)cc12 (mixture of isomers) [Example 176, N-(2-((R)-4-Cyanothiazolidin-3-yl)-2-oxoethyl)-6-(1-((RS)-tetrahydro-2H-pyran-2-yl)-1H-pyrazol-5-yl)quinoline-4-carboxamide]
- IC50 ([1]; hFAP 0.24 nM): 0.54 nM
- IC50 [2]: 0.087 nM
- hFAP Binding assay k(off) [3]: 0.00022 s⁻¹
- hFAP Binding assay k(on) [3]: 120000 M⁻¹ s⁻¹
- Kd [3]: 1.9 nM
- IC50 [4]: 560 nM
- solubility [5, 9]: 800 µM
- rHep CLint [6]: 15 μL/min/1E6
- microsomal CLint [7, 10]: 92 µL/min/mg

Compound: N#C[C@@H]1CSCN1C(=O)CNC(=O)c1ccnc2ccc(N3C[C@@H]4CC[C@H]3C4)cc12 (mixture of isomers) [Example 210, 6-((1RS,4SR)-2-Azabicyclo[2.2.1]heptan-2-yl)-N-(2-((R)-4-cyanothiazolidin-3-yl)-2-oxoethyl)quinoline-4-carboxamide]
- IC50 ([1]; hFAP 0.24 nM): 0.44 nM
- IC50 [2]: 0.18 nM
- hFAP Binding assay k(off) [3]: 0.000098 s⁻¹
- hFAP Binding assay k(on) [3]: 3800000 M⁻¹ s⁻¹
- Kd [3]: 0.026 nM
- IC50 [4]: 220 nM
- solubility [5, 9]: 150 µM
- rHep CLint [6]: 250 μL/min/1E6
- microsomal CLint [7, 10]: 220 µL/min/mg

Compound: N#C[C@@H]1CSCN1C(=O)CNC(=O)c1ccnc2ccc(N3CCSCC3)cc12 [Example 3, (R)—N-(2-(4-Cyanothiazolidin-3-yl)-2-oxoethyl)-6-thiomorpholinoquinoline-4-carboxamide]
- IC50 ([1]; hFAP […]): 0.24 nM
- IC50 [2]: 0.13 nM
- hFAP Binding assay k(off) [3]: 0.0004 s⁻¹
- hFAP Binding assay k(on) [3]: 4100000 M⁻¹ s⁻¹
- Kd [3]: 0.095 nM
- IC50 [4]: 690 nM
- solubility [5, 9]: 700 µM (≈ 299 µg/mL)
- rHep CLint [6]: 28 μL/min/1E6
- microsomal CLint [7, 10]: 75 µL/min/mg

Compound: C[C@@H]1COC[C@H](C)N1c1cc2c(C(=O)NCC(=O)N3CSC[C@H]3C#N)ccnc2cc1Br [Example 100, 7-Bromo-N-(2-((R)-4-cyanothiazolidin-3-yl)-2-oxoethyl)-6-((3S,5R)-3,5-dimethylmorpholino)quinoline-4-carboxamide]
- IC50 ([1]; hFAP […]): 0.5 nM
- IC50 [2]: 0.27 nM
- hFAP Binding assay k(off) [3]: 0.0022 s⁻¹
- hFAP Binding assay k(on) [3]: 3000000 M⁻¹ s⁻¹
- Kd [3]: 0.73 nM
- IC50 [4]: 170 nM
- solubility [5, 9]: 36 µM (≈ 18.7 µg/mL)
- rHep CLint [6]: 280 μL/min/1E6

Compound: CO[C@H]1CCN(c2ccc3nccc(C(=O)NCC(=O)N4CSC[C@H]4C#N)c3c2)C1 [Example 207, N-(2-((R)-4-Cyanothiazolidin-3-yl)-2-oxoethyl)-6-((S)-3-methoxy-pyrrolidin-1-yl)quinoline-4-carboxamide]
- IC50 [2]: 0.17 nM
- hFAP Binding assay k(off) [3]: 0.000053 s⁻¹
- hFAP Binding assay k(on) [3]: 4600000 M⁻¹ s⁻¹
- Kd [3]: 0.011 nM
- IC50 [4]: 430 nM
- solubility [5, 9]: 280 µM (≈ 119 µg/mL)
- Papp A→B [8]: 2.3 ×10⁻⁶ cm/s
- Papp B→A [8]: 30 ×10⁻⁶ cm/s
- efflux ratio [8]: 13
- rHep CLint [6]: 1.4 μL/min/1E6
- microsomal CLint [7, 10]: < 3 µL/min/mg

Compound: N#C[C@@H]1CSCN1C(=O)CNC(=O)c1ccnc2ccc(N3C[C@@H](F)[C@H](F)C3)cc12 [Example 214, N-(2-((R)-4-Cyanothiazolidin-3-yl)-2-oxoethyl)-6-((3R,4R)-3,4-difluoro-pyrrolidin-1-yl)quinoline-4-carboxamide]
- IC50 ([1]; hFAP […]): 0.2 nM
- IC50 [2]: 0.079 nM
- hFAP Binding assay k(off) [3]: 0.000092 s⁻¹
- hFAP Binding assay k(on) [3]: 2900000 M⁻¹ s⁻¹
- Kd [3]: 0.043 nM
- IC50 [4]: 280 nM
- rHep CLint [6]: 15 μL/min/1E6

Compound: N#C[C@@H]1CSCN1C(=O)CNC(=O)c1ccnc2ccc(N3CCC4(CC3)COC4)cc12 [Example 229, (R)—N-(2-(4-cyanothiazolidin-3-yl)-2-oxoethyl)-6-(2-oxa-7-azaspiro[3.5]nonan-7-yl)quinoline-4-carboxamide]
- IC50 [2]: 0.091 nM
- hFAP Binding assay k(off) [3]: 0.000026 s⁻¹
- hFAP Binding assay k(on) [3]: 2400000 M⁻¹ s⁻¹
- Kd [3]: 0.01 nM
- IC50 [4]: 320 nM
- solubility [5]: > 1000 µM
- Papp [8]: 0.7 ×10⁻⁶ cm/s
- Papp A→B [8]: 22 ×10⁻⁶ cm/s
- Papp B→A [8]: 32 ×10⁻⁶ cm/s
- rHep CLint [6]: 15 μL/min/1E6
- microsomal CLint [7]: < 3 µL/min/mg

These reach a lower IC50 [2]. Values come first.

- IC50 ([1]; hFAP 0.24 nM): 0.22 nM
- IC50 [2]: 0.074 nM
- hFAP Binding assay k(off) [3]: 0.000072 s⁻¹
- hFAP Binding assay k(on) [3]: 1700000 M⁻¹ s⁻¹
- Kd [3]: 0.042 nM
- IC50 [4]: 540 nM
- solubility [5, 9]: 140 µM
- rHep CLint [6]: 160 μL/min/1E6
- microsomal CLint [7, 10]: 220 µL/min/mg
Compound: C[C@H]1CC(F)(F)CCN1c1ccc2nccc(C(=O)NCC(=O)N3CSC[C@H]3C#N)c2c1 (mixture of isomers) [Example 44, N-(2-((R)-4-Cyanothiazolidin-3-yl)-2-oxoethyl)-6-((RS)-4,4-difluoro-2-methylpiperidin-1-yl)quinoline-4-carboxamide]

- IC50 [2]: 0.069 nM
- hFAP Binding assay k(off) [3]: 0.000036 s⁻¹
- hFAP Binding assay k(on) [3]: 1800000 M⁻¹ s⁻¹
- Kd [3]: 0.02 nM
- IC50 [4]: 690 nM
- solubility [5, 9]: > 1000 µM
- Papp A→B [8]: 0.32 ×10⁻⁶ cm/s
- Papp B→A [8]: 7.6 ×10⁻⁶ cm/s
- efflux ratio [8]: 24
- rHep CLint [6]: <1 μL/min/1E6
- microsomal CLint [7, 10]: < 3 µL/min/mg
Compound: CC1(O)CCN(c2ccc3nccc(C(=O)NCC(=O)N4CSC[C@H]4C#N)c3c2)CC1 [Example 190, (R)—N-(2-(4-Cyanothiazolidin-3-yl)-2-oxoethyl)-6-(4-hydroxy-4-methyl-piperidin-1-yl)quinoline-4-carboxamide]

- IC50 ([1]; hFAP 0.24 nM): 0.24 nM
- IC50 [2]: 0.065 nM
- hFAP Binding assay k(off) [3]: 0.000046 s⁻¹
- hFAP Binding assay k(on) [3]: 1300000 M⁻¹ s⁻¹
- Kd [3]: 0.043 nM
- IC50 [4]: 280 nM
Compound: N#C[C@@H]1CSCN1C(=O)CNC(=O)c1ccnc2ccc(N3CCC[C@H](F)C3)cc12 (mixture of isomers) [Example 40, N-(2-((R)-4-Cyanothiazolidin-3-yl)-2-oxoethyl)-6-((RS)-3-fluoropiperidin-1-yl)quinoline-4-carboxamide]

- IC50 [2]: 0.051 nM
- hFAP Binding assay k(off) [3]: 0.000014 s⁻¹
- hFAP Binding assay k(on) [3]: 1300000 M⁻¹ s⁻¹
- Kd [3]: 0.0077 nM
- IC50 [4]: 200 nM
- solubility [5, 9]: 530 µM (≈ 248 µg/mL)
- Papp A→B [8]: 0.51 ×10⁻⁶ cm/s
- Papp B→A [8]: 39 ×10⁻⁶ cm/s
- efflux ratio [8]: 76
- rHep CLint [6]: 2.9 μL/min/1E6
- microsomal CLint [7, 10]: 28 µL/min/mg
Compound: CC(C)C1(O)CCN(c2ccc3nccc(C(=O)NCC(=O)N4CSC[C@H]4C#N)c3c2)CC1 [Example 192, (R)—N-(2-(4-Cyanothiazolidin-3-yl)-2-oxoethyl)-6-(4-hydroxy-4-isopropyl-piperidin-1-yl)quinoline-4-carboxamide]
